Patent US20080113929A1, “Abasic Oligonucleotide as Carrier Platform for Antigen and Immunostimulatory Agonist and Antagonist” (Coley Pharmaceutical GmbH, priority 2004, published 2008)

Experiments:
murine TLR9 = target: T1, murine TLR9 (Mus musculus, UniProt Q9EQU3); assay: TLR9 signaling induction, NFκB-luciferase reporter in HEK 293 cells stably transfected with murine TLR9; type: cell-based; conditions: 16 h, HEK 293 murine TLR9 NFκB-luciferase
T1 construct: expressed in transfected cells; host or cells: HEK 293 cells, stably transfected, also carrying a six-fold NFκB-luciferase reporter plasmid
T1 sequence (Q9EQU3 26-1032): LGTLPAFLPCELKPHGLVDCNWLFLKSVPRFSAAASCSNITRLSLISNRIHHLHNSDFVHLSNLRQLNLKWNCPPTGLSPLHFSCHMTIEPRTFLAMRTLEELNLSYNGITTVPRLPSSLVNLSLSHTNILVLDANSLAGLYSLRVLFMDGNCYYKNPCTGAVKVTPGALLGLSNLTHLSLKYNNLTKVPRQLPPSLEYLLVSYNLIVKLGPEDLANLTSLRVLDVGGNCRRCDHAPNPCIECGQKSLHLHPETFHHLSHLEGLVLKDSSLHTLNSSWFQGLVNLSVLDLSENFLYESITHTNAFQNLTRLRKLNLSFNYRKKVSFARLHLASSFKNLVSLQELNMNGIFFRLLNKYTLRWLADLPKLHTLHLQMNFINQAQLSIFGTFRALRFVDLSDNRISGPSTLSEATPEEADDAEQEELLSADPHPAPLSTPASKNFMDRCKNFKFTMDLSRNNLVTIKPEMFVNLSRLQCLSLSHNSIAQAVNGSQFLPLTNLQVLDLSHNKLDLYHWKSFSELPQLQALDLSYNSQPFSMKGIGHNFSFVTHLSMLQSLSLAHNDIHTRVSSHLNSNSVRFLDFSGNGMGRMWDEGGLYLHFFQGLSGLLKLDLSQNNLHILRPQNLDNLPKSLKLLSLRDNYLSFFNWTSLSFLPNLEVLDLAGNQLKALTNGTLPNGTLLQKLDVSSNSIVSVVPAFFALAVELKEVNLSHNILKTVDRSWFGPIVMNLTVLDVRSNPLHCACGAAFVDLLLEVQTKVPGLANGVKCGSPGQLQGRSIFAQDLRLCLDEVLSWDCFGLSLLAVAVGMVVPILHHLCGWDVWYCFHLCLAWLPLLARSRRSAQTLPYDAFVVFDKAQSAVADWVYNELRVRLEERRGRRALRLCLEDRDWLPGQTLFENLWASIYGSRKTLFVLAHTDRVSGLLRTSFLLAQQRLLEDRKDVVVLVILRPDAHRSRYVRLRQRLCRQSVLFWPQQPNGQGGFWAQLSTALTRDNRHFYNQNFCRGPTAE
Protocol: FIG. 2 is a graph depicting fold induction of TLR9 signaling in vitro, as measured using 293 cells stably transformed with murine TLR9 and a NF-κB-luciferase reporter construct, following 16 hour incubation with indicated concentrations of hexamer CpG motif GACGTT alone (20321), CpG motif GACGTT in the context of a 20-mer CpG-ODN(ODN 5890; SEQ ID NO:5), or CpG motif GACGTT in the context of flanking abasic sequences in 20-mer 20307 (poly-D) or in 20-mer 20566 (poly-C3 spacer). EC50 values are shown in the graph legend.
Following published methods, HEK 293 cells were stably transfected with a murine TLR9 expression vector and a six-fold NFκB-luciferase reporter plasmid. Cells were plated on 96-well plates at 1.5×10^4 cells/well and allowed to attach overnight. The cells were then treated for sixteen hours with individual test compounds listed below at concentrations ranging between 10^−9 M and 10^−5 M.
Test agents were as follows: ODN 20321 (GACGTT); ODN 5890 (SEQ ID NO:5); 20307 ([…], where each D represents an abasic deoxyribonucleotide unit); and 20566 (JJJJJGACGTTJJJJJJJJJ, where each J represents a C3 spacer derived from propane-1,3-diol).
Each data point was done in duplicate. After 16 h stimulation the supernatant was removed and the cells were treated with lysis buffer and stored at −80° C. until luciferase measurement. Values are given as fold NFκB activation compared with non-stimulated cells.

[1] = tested on: RAW 264.7 murine macrophage cell line; assay: In vitro uptake of Cy3-labeled oligomers by RAW 264.7 cells (FACS mean fluorescence); type: cell-based; conditions: Cy3-labeled 20-mer, 0.5 to 5.0 μM, 1 hr at 37° C.
Protocol: FIG. 1 is a bar graph depicting uptake by RAW 264.7 cells of Cy3-labeled 20-mer abasic oligonucleotides (poly-D or poly-C3) and of 20-mer ODN 5890 (SEQ ID NO:5). No data is shown for poly-C3 at 4.0 or 5.0 μM.
The 20-mer ODN 5890 ([…]; SEQ ID NO:5), a 20-mer poly-abasic (i.e., poly-D) or a 20-mer poly-C3 were synthesized with a fluorescence tag Cy3. The murine macrophage cell line, RAW 264.7 (American Type Culture Collection, Manassas, Va.), was incubated with various concentrations of test oligomer (0.5 to 5.0 μM) for 1 hr at 37° C. The cells were then washed and FACS analyzed for oligomer uptake by monitoring mean fluorescence. […] No data is shown for poly-C3 at concentrations of 4.0 or 5.0 μM.

| Sequence | TLR9 signaling compared with hexamer CpG motif alone (20321), in words (murine TLR9) | oligomer uptake (comparison in words) [1] |
| --- | --- | --- |
| JJJJJGACGTTJJJJJJJJJ [compound 20566] | induced significantly more TLR9 signaling | – |
| TCCATGACGTTTTTGATGTT (Cy3 fluorescent tag attached, position not given here) [ODN 5890, Cy3-tagged in the uptake test] | induced significantly more TLR9 signaling | up taken to a greater extent than either abasic oligonucleotide |
| DDDDDGACGTTDDDDDDDDD [compound 20307] | induced significantly more TLR9 signaling | – |
